# Laboratory results as given in the supplement of paper PMC11061612.
# Legend:
# [1] = test system: PANC-10-05 (Pancreatic Carcinoma); assay: combination Emax (second highest fraction inhibited in the dose matrix, 72 h); higher = more inhibition; extreme values may be limits of the assay
# Summary of the method: (§1)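 Bliss excess equals the observed combination effect minus the expected value EA + EB − EA·EB, where EA and EB are the effects of each agent alone. Combination Emax is the second-highest inhibition within the matrix. Inhibition was scaled from CellTiter-Glo 2.0 luminescence, with 0 set by vehicle wells and 1 by blank wells, after 72 hours of two-drug dosing of cells plated in 1536-well plates.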
# IGR-37 (Melanoma) [2] = assay: as above
# Summary of the method: as §1
# [3] = test system: NCI-H2066 (Squamous Cell Lung Carcinoma); assay: as above
# Summary of the method: as §1
# NY (Osteosarcoma) [4] = assay: as above
# Summary of the method: as §1
# [5] = test system: ONS-76 (Other Solid Carcinomas); assay: as above
# Summary of the method: as §1
# U-2-OS (Osteosarcoma) [6] = assay: as above
# Summary of the method: as §1
# [7] = test system: CAPAN-2 (Pancreatic Carcinoma); assay: as above
# Summary of the method: as §1
# [8] = test system: NCI-H1581 (Non-Small Cell Lung Carcinoma); assay: as above
# Summary of the method: as §1
# [9] = test system: NCI-H1666 (Lung Adenocarcinoma); assay: as above
# Summary of the method: as §1
# [10] = test system: ECC10 (Gastric Carcinoma); assay: as above
# Summary of the method: as §1
# [11] = test system: TT (Thyroid Gland Carcinoma); assay: as above
# Summary of the method: as §1
# [12] = test system: VCaP (Prostate Carcinoma); assay: as above
# Summary of the method: as §1
# [13] = test system: COLO-320-HSR (Colorectal Carcinoma); assay: as above
# Summary of the method: as §1
# [14] = test system: BICR22 (Oral Cavity Carcinoma); assay: as above
# Summary of the method: as §1
# [15] = test system: CCK-81 (Colorectal Carcinoma); assay: as above
# Summary of the method: as §1
# [16] = test system: KARPAS-422 (B-Cell Non-Hodgkin's Lymphoma); assay: as above
# Summary of the method: as §1
# FU97 (Gastric Carcinoma) [17] = assay: as above
# Summary of the method: as §1
# [18] = test system: NCI-H64 (Small Cell Lung Carcinoma); assay: as above
# Summary of the method: as §1
# [19] = test system: PANC-10-05 (Pancreatic Carcinoma); assay: Bliss excess, mean over the matrix (fraction); higher = more synergy
# Summary of the method: as §1
# IGR-37 (Melanoma) [20] = assay: as above
# Summary of the method: as §1
# [21] = test system: NCI-H2066 (Squamous Cell Lung Carcinoma); assay: as above
# Summary of the method: as §1
# NY (Osteosarcoma) [22] = assay: as above
# Summary of the method: as §1
# [23] = test system: ONS-76 (Other Solid Carcinomas); assay: as above
# Summary of the method: as §1
# U-2-OS (Osteosarcoma) [24] = assay: as above
# Summary of the method: as §1
# [25] = test system: CAPAN-2 (Pancreatic Carcinoma); assay: as above
# Summary of the method: as §1
# [26] = test system: NCI-H1581 (Non-Small Cell Lung Carcinoma); assay: as above
# Summary of the method: as §1
# [27] = test system: NCI-H1666 (Lung Adenocarcinoma); assay: as above
# Summary of the method: as §1
# [28] = test system: ECC10 (Gastric Carcinoma); assay: as above
# Summary of the method: as §1
# [29] = test system: TT (Thyroid Gland Carcinoma); assay: as above
# Summary of the method: as §1
# [30] = test system: VCaP (Prostate Carcinoma); assay: as above
# Summary of the method: as §1
# [31] = test system: COLO-320-HSR (Colorectal Carcinoma); assay: as above
# Summary of the method: as §1
# [32] = test system: BICR22 (Oral Cavity Carcinoma); assay: as above
# Summary of the method: as §1
# [33] = test system: CCK-81 (Colorectal Carcinoma); assay: as above
# Summary of the method: as §1
# [34] = test system: KARPAS-422 (B-Cell Non-Hodgkin's Lymphoma); assay: as above
# Summary of the method: as §1
# FU97 (Gastric Carcinoma) [35] = assay: as above
# Summary of the method: as §1
# [36] = test system: NCI-H64 (Small Cell Lung Carcinoma); assay: as above
# Summary of the method: as §1
SMILES,combination Emax [1],combination Emax (IGR-37 (Melanoma) [2]),combination Emax [3],combination Emax (NY (Osteosarcoma) [4]),combination Emax [5],combination Emax (U-2-OS (Osteosarcoma) [6]),combination Emax [7],combination Emax [8],combination Emax [9],combination Emax [10],combination Emax [11],combination Emax [12],combination Emax [13],combination Emax [14],combination Emax [15],combination Emax [16],combination Emax (FU97 (Gastric Carcinoma) [17]),combination Emax [18],Bliss excess [19],Bliss excess (IGR-37 (Melanoma) [20]),Bliss excess [21],Bliss excess (NY (Osteosarcoma) [22]),Bliss excess [23],Bliss excess (U-2-OS (Osteosarcoma) [24]),Bliss excess [25],Bliss excess [26],Bliss excess [27],Bliss excess [28],Bliss excess [29],Bliss excess [30],Bliss excess [31],Bliss excess [32],Bliss excess [33],Bliss excess [34],Bliss excess (FU97 (Gastric Carcinoma) [35]),Bliss excess [36]
"C[C@@H](Nc1cc(F)cc(F)c1)c1cc(C(=O)N(C)C)cc2c(=O)cc(N3CCOCC3)oc12 [AZD8186] + C1CN(CCC1(C(=O)N[C@@H](CCO)C2=CC=C(C=C2)Cl)N)C3=NC=NC4=C3C=CN4 [AZD5363] (first compound max 10 µM, 7x7, partner max 10 µM)",0.436,0.44,0.513,0.325,0.312,0.279,0.285,0.101,0.406,0.276,0.415,0.443,0.184,0.308,0.266,0.628,0.374,0.277,-0.0847,0.0334,-0.0364,0.0425,-0.028,-0.0324,-0.0305,-0.0207,-0.0707,0.0141,-0.0413,-0.0177,0.0159,0.0421,-0.0118,-0.106,-0.0072,0.0116
"C=CCn1c(=O)c2cnc(Nc3ccc(N4CCN(C)CC4)cc3)nc2n1-c1cccc(C(C)(C)O)n1 [AZD1775] + Nc1ccn([C@@H]2O[C@H](CO)[C@@H](O)C2(F)F)c(=O)n1 [Gemcitabine] (first compound max 1 µM, partner max 0.3 µM)",0.631,0.674,0.217,0.7,0.559,0.724,0.43,0.948,0.46,0.821,0.486,0.839,0.811,0.943,0.81,0.847,0.362,0.905,-0.0504,-0.0346,-0.0678,-0.0595,-0.0804,0.029,-0.065,0.124,-0.0561,0.0012,-0.0228,-0.0094,0.0066,-0.0077,-0.0665,-0.0482,-0.0313,-0.0098
"C[C@@H](Oc1cc(-c2cnn(C3CCNCC3)c2)cnc1N)c1c(Cl)ccc(F)c1Cl [Crizotinib] + Cn1cnc2c(F)c(Nc3ccc(Br)cc3Cl)c(C(=O)NOCCO)cc21 [Selumetinib] (first compound max 10 µM, 7x7, partner max 10 µM)",0.643,0.922,0.513,0.279,0.65,0.831,0.639,0.519,0.503,0.858,0.479,0.652,0.614,0.281,0.794,0.723,0.319,0.56,0.006,0.0066,-0.0245,-0.0158,-0.0482,0.0015,0.0244,0.0228,-0.0892,-0.0116,0.0207,-0.0622,-0.0696,-0.0493,-0.0256,-0.063,-0.0414,-0.012
"O=C(c1cc(Cc2n[nH]c(=O)c3ccccc23)ccc1F)N1CCN(C(=O)C2CC2)CC1 [Olaparib] + CN(CC[C@H](CSC1=CC=CC=C1)NC2=C(C=C(C=C2)S(=O)(=O)NC(=O)C3=CC=C(C=C3)N4CCC(CC4)[C@H](C5=CC=CC=C5C6=CC=C(C=C6)Cl)O)S(=O)(=O)C(F)(F)F)CCO [AZD4320] (first compound max 10 µM, 7x7, partner max 1 µM)",0.164,0.275,0.351,0.195,0.181,0.202,0.462,0.3,0.124,1,0.538,0.128,0.19,0.255,0.124,0.925,0.212,0.95,-0.0548,0.0028,-0.097,0.0263,-0.0216,-0.0213,-0.0461,0.0118,-0.0702,0.0135,0.0271,-0.0444,0.016,0.0041,-0.0283,-0.0348,-0.0426,-0.0325
"CC1(C)CCC(CN2CCN(c3ccc(C(=O)NS(=O)(=O)c4ccc(NCC5CCOCC5)c([N+](=O)[O-])c4)c(Oc4cnc5[nH]ccc5c4)c3)CC2)=C(c2ccc(Cl)cc2)C1 [Venetoclax] + CS(=O)(=O)CCNCc1ccc(-c2ccc3ncnc(Nc4ccc(OCc5cccc(F)c5)c(Cl)c4)c3c2)o1 [Lapatinib] (first compound max 1 µM, 7x7, partner max 10 µM)",0.353,0.253,0.352,0.226,0.228,0.0668,0.115,0.242,0.568,0.94,0.121,0.109,0.169,0.21,0.892,0.884,0.813,0.21,-0.0426,0.0223,-0.0203,-0.0008,-0.0055,-0.044,-0.0425,-0.0136,-0.0214,0.0105,-0.0344,-0.0449,-0.0048,-0.0287,-0.0352,0.049,0.0218,-0.0068
"O=C(c1cc(Cc2n[nH]c(=O)c3ccccc23)ccc1F)N1CCN(C(=O)C2CC2)CC1 [Olaparib] + COc1nnc2ccc(N3CCC(c4ccc(OCCN5CCN(C)C(=O)[C@H]5C)cc4)CC3)nn12 [AZD5153] (first compound max 10 µM, 7x7, partner max 1 µM)",0.401,0.58,0.286,0.473,0.474,0.285,0.186,0.506,0.409,0.786,0.48,0.707,0.373,0.0626,0.756,0.66,0.762,0.239,-0.0072,-0.0984,-0.0865,-0.0877,-0.0463,-0.0312,-0.0267,0.0078,-0.0544,-0.0196,-0.0615,-0.082,-0.0311,-0.0477,-0.0643,-0.0132,-0.0372,-0.0338
"Cc1nc(-c2cn3c(n2)-c2ccc(-c4cnn(C(C)(C)C(N)=O)c4)cc2OCC3)n(C(C)C)n1 [Taselisib] + O=C(Nc1ccc2[nH]nc(-c3ccncc3)c2c1)[C@@H]1CCN(CC(=O)N2CCN(c3ccc(-c4ncccn4)cc3)CC2)C1 [SCH772984] (first compound max 10 µM, 7x7, partner max 5 µM)",0.809,0.938,0.681,0.564,0.976,0.993,0.521,0.635,0.881,1,0.568,0.587,0.419,0.966,0.988,0.554,0.404,0.377,0.0166,0.0732,0.0133,0.0687,0.0608,0.112,0.0241,0.178,0.0878,0.124,0.106,-0.0098,-0.0441,0.116,0.0528,0.0406,0.0139,0.0028
"C[C@@H]1COCCN1c1cc(C2([S@](C)(=N)=O)CC2)nc(-c2ccnc3[nH]ccc23)n1 [AZD6738] + C1CC(C1)(C(=O)[O-])C(=O)[O-].N.N.[Pt+2] [Carboplatin] (first compound max 10 µM, 7x7, partner max 10 µM)",0.477,0.616,0.412,0.568,0.814,0.511,0.159,0.281,0.304,0.397,0.442,0.48,0.495,0.804,0.886,0.434,0.349,0.793,-0.0611,-0.0539,-0.0715,-0.0504,-0.0512,-0.0234,-0.0168,-0.0399,-0.0814,-0.0097,-0.0108,-0.0644,-0.036,-0.0297,-0.0429,-0.0683,-0.0215,-0.0431
